Test results taken from patent US20090104211A1, “Treatment of atherosclerosis” (AFFIRIS Forschungs-und Entwicklungs GmbH, priority 2004, published 2009).

Test system: anti-CETP monoclonal antibody (detects the CETP-derived amino acid sequence FGFPEHLLVDFLQSLS)
Test: ELISA screening of peptide libraries with anti-CETP monoclonal antibody for mimotope identification
Type: binding
Conditions: 7 mer / 8 mer peptide libraries
From the text: The problem of the anti-CETP vaccine approach discussed above is that the vaccine formulation comprises a self peptide and therefore must break natural tolerance against self antigens. The invention describes a CETP mimotope that can be used for vaccination: The mimotope shall induce the production of antibodies against CETP. […] Thus, the induction of an anti-CETP antibody response is greatly facilitated. The mimotope is identified with a monoclonal antibody (mAb) and (commercially available) peptide libraries (e.g. according to 16). An anti-CETP monoclonal antibody is used that neutralizes CETP activity (17). This mAb detects a sequence within the C-terminal 26 amino acids of CETP necessary for neutral lipid transfer activity (18).
One monoclonal antibody used for the mimotope identification detects the CETP-derived amino acid sequence […] (=original epitope).
The mimotope has a preferred length of 5 to 15 amino acids. Two different libraries are used in ELISA assays to define mimotope sequences.
Library 1: This 7 mer library contains peptides with the following sequences (amino acid positions 1 to 7):
Library 2: This 8 mer library contains peptides with the following sequences (amino acid positions 1 to 8):
Position 1: all natural aa except of C (19 possibilities) Position 2: all natural aa except of C (19 possibilities) Position 3: all natural aa except of C (19 possibilities) Position 4: all natural aa except of C (19 possibilities) Position 5: all natural aa except of C (19 possibilities) Position 6: all natural aa except of C (19 possibilities) Position 7: all natural aa except of C (19 possibilities) Position 8: all natural aa except of C (19 possibilities)

Row | Substance | mimotope detected by monoclonal antibody
1 | ALKYKLP [7 mer peptide, CETP mimotope] | detected by a monoclonal antibody
2 | ALKGKIP [7 mer peptide, CETP mimotope] | detected by a monoclonal antibody
3 | ALKNKLP [7 mer peptide, CETP mimotope] | detected by a monoclonal antibody
4 | ALKHKIP [7 mer peptide, CETP mimotope] | detected by a monoclonal antibody
5 | ALKNKIP [7 mer peptide, CETP mimotope] | detected by a monoclonal antibody
6 | AAQKDKVP [8 mer peptide, CETP mimotope] | detected by a monoclonal antibody
7 | ALKHKVP [7 mer peptide, CETP mimotope] | detected by a monoclonal antibody
8 | ALKDKVP [7 mer peptide, CETP mimotope] | detected by a monoclonal antibody
9 | AVKGKLP [7 mer peptide, CETP mimotope] | detected by a monoclonal antibody
10 | ALKDKLP [7 mer peptide, CETP mimotope] | detected by a monoclonal antibody
11 | ALKSKIP [7 mer peptide, CETP mimotope] | detected by a monoclonal antibody
